The source of these data is publication PMC6984391, “Anion carriers as potential treatments for cystic fibrosis: transport in cystic fibrosis cells, and additivity to channel-targeting drugs” (Chemical Science, 2019).

A short description of this assay: Cl-/NO3- exchange in LUVs with preincorporated anionophore (lucigenin method). Format: biochemical. The settings on record: transporter preincorporated in LUVs (70% POPC + 30% cholesterol), 25 mM NaCl gradient, 225 mM NaNO3; new compound or new data. Here is the method:
The four new anionophores were tested for affinity to Cl^– (in CHCl3 and DMSO, with tetra-alkylammonium counter-ions), and for anion transport (Cl^–/NO3^– exchange) when preloaded into 200 nm large unilamellar vesicles (LUVs). The latter assay was performed using the well-established “lucigenin method”[30] in which Cl^– influx into vesicles is followed through quenching of fluorescence from the halide-sensitive fluorophore lucigenin. The results are listed in Table 1, accompanied by corresponding values for the previously-reported compounds where available. […] In this test, anion transport by anionophores delivered externally to LUVs is compared with their action when preloaded into LUV membranes.[24],[29],[32]
3. Transport studies in vesicles
Transport measurements in vesicles with preincorporated anionophores.
1-Palmitoyl-2-oleoyl-sn-glycero-3-phosphocholine (POPC) was obtained from Avanti® Polar Lipids, Inc. An extrusion apparatus and 200 nm polycarbonate membranes were obtained from GC Technology Ltd. All lipid and receptor solutions were prepared using chloroform that had been deacidified by passage through a flash chromatography column containing basic alumina, and all aqueous solutions were prepared using deionised water that had been passed through a Millipore filtration system.
POPC and cholesterol solutions (~10 mM) in deacidified chloroform were combined with a solution of transporter in methanol or deacidified chloroform in a 5 mL round bottomed flask.
Volumes of the aliquots were calculated from the concentrations of the lipid solution to obtain a POPC to cholesterol ratio of 7:3 (for instance by combining 4.20 µmol POPC and 1.80 µmol cholesterol). The ratio of anionophore to lipid (POPC + cholesterol) was either 1:2500 or 1:25000, as specified in the experiments. The solvents from the lipid/receptor mixture were evaporated under a stream of N2 and the lipid film was dried under high vacuum for 1 h. The residue was hydrated with 500 µL of an aqueous solution of 10,10'-dimethyl-9,9'-biacridinium nitrate (lucigenin, 0.8 mM) and NaNO3 (225 mM), sonicated for 30 s and stirred for 1 h to give heterogeneous vesicles. Multilamellar vesicles were disrupted by 10 freeze-thaw cycles and then the solution was diluted to 1 mL (by adding 0.5 mL of 225 mM NaNO3) and carefully extruded (29 times) through a polycarbonate membrane (200 nm pore size) to give a uniform distribution of LUVs with an average diameter of ~200 nm.2 The external lucigenin was removed by passing the solution though a size exclusion column (containing ~2 g Sephadex 50G, eluted with 225 mM NaNO3). The collected vesicles were further diluted with NaNO3 solution (225 mM) to obtain a vesicle solution with 0.4 mM lipid concentration. 3.00 mL of this vesicle solution was placed in a quartz cuvette with a small stir bar and the fluorescence intensity (excitation at 450 nm, emission at 535 nm) was measured over time at 25 °C, using a PerkinElmer LS45 fluorescence spectrometer. 75 µL of aqueous NaCl (1.0 M in 225 mM NaNO3, to give an overall external chloride concentration of 25 mM) was added ~30 seconds after the start of the experiment and the fluorescence intensity was measured for another 14 […]
Fluorescence data were collected for at least four replicate experiments. The plateau (before addition of chloride) and the vertical drop (the first 1-2.5 seconds after chloride addition, due to quenching of external lucigenin) were removed. Next the data were normalized: all fluorescence values (F) were divided by the fluorescence value before addition of chloride (F0).
Initial rates (I) were obtained from fluorescence -decay curves (0-500 s) by fitting their inverse (F0/F) to a double exponential decay function:
Differentiating this gives F = abe−bt + cde−dt […]
and substituting t = 0 gives the following equation for initial rate: I = ab + cd Specific initial rates [I] were obtained by dividing the initial rates by the anionophore to lipid […]
For the compound `CCOC(=O)[C@]12CC[C@@H](NC(=S)Nc3ccc([N+](=O)[O-])cc3)C[C@@H]1C[C@@H](NC(=S)Nc1ccc([N+](=O)[O-])cc1)CC2` [Compound 12], the “Specific initial rate [I]” value stood at 310 s^–1. The result for `FC(F)(F)c1ccc(NC(=S)NCCN(CCNC(=S)Nc2ccc(C(F)(F)F)cc2)CCNC(=S)Nc2ccc(C(F)(F)F)cc2)cc1` [Compound 18] reads 36 ^b s^–1; that for `COCCOCCOC(=O)[C@]12CC[C@@H](NC(=O)Nc3cc(C(F)(F)F)cc(C(F)(F)F)c3)C[C@@H]1C[C@@H](NC(=O)Nc1cc(C(F)(F)F)cc(C(F)(F)F)c1)CC2` [Compound 10], 19 s^–1. Take `CCCCCCCCOC(=O)[C@]12CC[C@@H](NC(=S)Nc3ccc([N+](=O)[O-])cc3)C[C@@H]1C[C@@H](NC(=S)Nc1ccc([N+](=O)[O-])cc1)CC2` [Compound 13]: the “Specific initial rate [I]” value is given as 370 s^–1. The result for `FC(F)(F)c1cc(NC(=S)NCCN(CCNC(=S)Nc2cc(C(F)(F)F)cc(C(F)(F)F)c2)CCNC(=S)Nc2cc(C(F)(F)F)cc(C(F)(F)F)c2)cc(C(F)(F)F)c1` [Compound 19] reads 590 ^b s^–1; that for `COCCOCCOC(=O)[C@]12CC[C@@H](NC(=O)Nc3ccc(C(F)(F)F)cc3)C[C@@H]1C[C@@H](NC(=O)Nc1ccc(C(F)(F)F)cc1)CC2` [Compound 9], 9 s^–1.
